In patent publication US20110152166A1, “METHOD OF MODULATION OF PROTEIN PHOSPHORYLATION-DEPENDENT CONFORMATIONAL TRANSITIONS WITH LOW MOLECULAR WEIGHT COMPOUNDS” (priority 2006, published 2011):
Numbering of substitutions follows the chain as printed. Read-outs that look alike come from different tables or passages of the source. Ends that are not written are not given here.

Columns and labels:
Assay in all cases: PDK1 activity assay with T308tide
Type in all cases: biochemical
GST-PDK1 [Arg131Met] = target: T1, GST-PDK1 [Arg131Met] (Homo sapiens, UniProt O15530, R131M)
T1 construct: different protein constructs, comprising the full length protein or the catalytic domain alone; made in house; host or cells: HEK293 cells (pEBG-2T-PDK1 mutant)
T1 sequence (O15530 1-556 R131M): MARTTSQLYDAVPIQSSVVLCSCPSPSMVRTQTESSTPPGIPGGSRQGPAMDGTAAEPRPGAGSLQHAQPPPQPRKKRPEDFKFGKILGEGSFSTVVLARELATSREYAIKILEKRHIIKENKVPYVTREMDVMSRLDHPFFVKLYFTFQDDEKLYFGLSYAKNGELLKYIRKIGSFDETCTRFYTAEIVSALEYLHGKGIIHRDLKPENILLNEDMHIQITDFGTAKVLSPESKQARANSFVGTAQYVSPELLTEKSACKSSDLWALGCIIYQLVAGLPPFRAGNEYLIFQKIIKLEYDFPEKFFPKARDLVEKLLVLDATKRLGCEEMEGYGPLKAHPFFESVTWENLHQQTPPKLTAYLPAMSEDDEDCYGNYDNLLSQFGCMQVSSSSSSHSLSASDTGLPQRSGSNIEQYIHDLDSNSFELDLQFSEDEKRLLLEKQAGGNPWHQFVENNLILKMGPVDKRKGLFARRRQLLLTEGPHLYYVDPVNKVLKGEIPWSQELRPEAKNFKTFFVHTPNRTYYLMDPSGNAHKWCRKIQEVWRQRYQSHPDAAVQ

GST-PDK1 [Leu155Ala] = target: T2, GST-PDK1 [Leu155Ala] (Homo sapiens, UniProt O15530, L155A)
T2 construct: different protein constructs, comprising the full length protein or the catalytic domain alone; made in house; host or cells: HEK293 cells (pEBG-2T-PDK1 mutant)
T2 sequence (O15530 1-556 L155A): T1 sequence (O15530 1-556 R131M) with M131R, L155A

GST-PDK1 [Ser135Ala] = target: T3, GST-PDK1 [Ser135Ala] (Homo sapiens, UniProt O15530, S135A)
T3 construct: different protein constructs, comprising the full length protein or the catalytic domain alone; made in house; host or cells: HEK293 cells (pEBG-2T-PDK1 mutant)
T3 sequence (O15530 1-556 S135A): T1 sequence (O15530 1-556 R131M) with M131R, S135A

| Compound | activation of PDK1 mutant (in words) (GST-PDK1 [Arg131Met]; Arg131 mutated to Met) | AC50 (GST-PDK1 [Arg131Met]; GST-PDK1 [Arg131Met]) | AC50 (GST-PDK1 [Leu155Ala]) [µM] | Max. activity (GST-PDK1 [Leu155Ala]) [U/mg] | AC50 (GST-PDK1 [Ser135Ala]) [µM] | Max. activity (GST-PDK1 [Ser135Ala]) [U/mg] | Max. activity (GST-PDK1 [Arg131Met]; GST-PDK1 [Arg131Met]) [U/mg] | AC50 (GST-PDK1 [Arg131Met]; GST-PDK1 [Arg131Met], read-out: AC50) [µM] |
| --- | --- | --- | --- | --- | --- | --- | --- | --- |
| O=C(O)CSC(CC(=O)c1ccc(Cl)cc1)c1ccccc1 (stereo not drawn) [Compound 1] | no longer activated | No Effect | > 200 | 2.02 ± 0.61 | 109 ± 33 | 2.82 ± 0.4 | – | – |
| REPRILSEEEQEMFRDFDYIADWC [PIFtide, reference compound] | – | – | 3.7 ± 0.66 | 3.46 ± 0.15 | 0.18 ± 0.02 | 3.4 ± 0.09 | 0.34 ± 0.06 | 0.29 ± 0.05 |
